Where two headings read alike, the source gives them in different places.
Experiments:
[1] = hydroxybenzoate salts of gabapentin in water; precipitates from aqueous solution
Source text: Numerous processes for reducing the chloride ions content in gabapentin exist. […] The proportion of remaining hydrochloride admixtures should thereby not exceed 20 ppm. The same also applies to other mineral acids.”

[2] = stated as known; cited from earlier work
[3] = storage stability (increase of lactam content on storage); type: physicochemical; settings: gabapentin obtained by the process; after one year at 25° C. and 50% humidity
Experimental: According to the invention, an aqueous solution containing approx. 10 to approx. 18 kg, preferably 13-15 kg, of gabapentin per 100 liters of water, at a temperature ranging from approx. 25 to approx. 60° C., preferably from 30 to 45° C., is added with the hydroxyacid in amounts of 0.95-1.05 mols per mol of gabapentin, the preferred molar ratio between the compounds being 1:1. The resulting suspension is stirred at the same temperature for 5-10 hours, then cooled to approx. 15-25° C. The resulting gabapentin hydroxybenzoate is dried under vacuum at approx. 50° C. The yield is approx. 90% on theoretical, with a assay higher than 99.5%. The resulting salt is suspended in a lower alcohol, preferably absolute ethanol, in amounts of approx. 3-5 liters per kg of salt, at a temperature of 15-25° C., and the suspension is added with an amount of tertiary amine (preferably tributylamine and most preferably N-ethyl-diisopropylamine (“Hünig base”)) in amounts of 1-1.2 mols per mol of gabapentin hydroxybenzoate. After stirring for some hours at the same temperature, the mixture is cooled to 5-10° C., the precipitated gabapentin is filtered or centrifuged, washed with the same alcohol, then stirred with ethanol containing approx. 10% by volume of water.

Compound	water-solubility [1]	water-solubility [2]	increase of content in lactam on storage [3]
NCC1(CC(=O)O)CCCCC1.O=C(O)c1ccc(O)cc1 [gabapentin 4-hydroxybenzoate]	so poor		
NCC1(CC(=O)O)CCCCC1 [gabapentin, 1-(aminomethyl)-cyclohexaneacetic acid]		highly water-soluble	does not undergo substantial increases
NCC1(CC(=O)O)CCCCC1.O=C(O)c1ccccc1O [salicylate, gabapentin salicylate]	so poor		

Reference: US6790986B1, “Process for the preparation of gabapentin free from inorganic acids anions” (Farchemia S.r.l., priority 2003, dated 2004)
